Values after ≈ are worked out from the molar mass of the structure shown. “Also recorded” adds a separate entry of the source. Like-named read-outs stand apart in the source and are kept apart here.
Legend:
[1] = PAMPA-BBB reported values; cited from earlier work
[2] = in vitro
Excerpt: The synthesised derivatives were screened for their abilities to cross the BBB using the parallel artificial membrane permeability assay (PAMPA) because this ability is a critical developmental requirement for any drug targeting neurodegenerative disorders or depression.

[3] = target: T1, MAO-B (Homo sapiens, UniProt P27338); assay: Reversibility of MAO-B inhibition by dialysis; format: biochemical; details: for MAO-B residual activity, dialysed (AD): after 6 h dialysis
T1 sequence (P27338 1-520): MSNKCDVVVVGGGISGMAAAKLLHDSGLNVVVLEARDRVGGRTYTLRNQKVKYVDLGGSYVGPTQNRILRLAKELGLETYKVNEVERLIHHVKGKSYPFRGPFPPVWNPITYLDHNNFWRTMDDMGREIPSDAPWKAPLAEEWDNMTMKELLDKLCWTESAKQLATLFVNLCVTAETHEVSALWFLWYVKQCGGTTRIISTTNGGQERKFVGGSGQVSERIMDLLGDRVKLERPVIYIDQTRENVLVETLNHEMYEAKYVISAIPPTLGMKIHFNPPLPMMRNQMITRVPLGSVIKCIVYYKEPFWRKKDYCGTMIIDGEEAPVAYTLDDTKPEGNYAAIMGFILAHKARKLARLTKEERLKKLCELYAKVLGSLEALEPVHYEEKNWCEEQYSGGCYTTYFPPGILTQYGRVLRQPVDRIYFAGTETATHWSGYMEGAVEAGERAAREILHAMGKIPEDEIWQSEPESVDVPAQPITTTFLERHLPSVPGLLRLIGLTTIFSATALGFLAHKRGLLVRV
Protocol: Figure 6. […] For recovery experiments, preincubated enzyme mixtures were dialysed as described in the text.
Inhibition types (reversible or irreversible) were determined by dialysis, as previously described^51,52, but by using 0.06 mM kynuramine and 0.3 mM benzylamine. For the experiment of AChE, 0.5 mM ATCI was used. […] Residual activities were calculated using the measured activities of undialyzed (AU) and dialysed (AD) solutions and the activities of untreated controls (i.e. without inhibitor).

[4] = target: T2, recombinant human MAO-A (Homo sapiens, UniProt P21397); assay: MAO-A inhibition assay (kynuramine substrate); format: biochemical; details: for remaining activity at 10 µM: read-out: Residual activities (%) MAO-A (10 µM)
T2 sequence (P21397 1-527): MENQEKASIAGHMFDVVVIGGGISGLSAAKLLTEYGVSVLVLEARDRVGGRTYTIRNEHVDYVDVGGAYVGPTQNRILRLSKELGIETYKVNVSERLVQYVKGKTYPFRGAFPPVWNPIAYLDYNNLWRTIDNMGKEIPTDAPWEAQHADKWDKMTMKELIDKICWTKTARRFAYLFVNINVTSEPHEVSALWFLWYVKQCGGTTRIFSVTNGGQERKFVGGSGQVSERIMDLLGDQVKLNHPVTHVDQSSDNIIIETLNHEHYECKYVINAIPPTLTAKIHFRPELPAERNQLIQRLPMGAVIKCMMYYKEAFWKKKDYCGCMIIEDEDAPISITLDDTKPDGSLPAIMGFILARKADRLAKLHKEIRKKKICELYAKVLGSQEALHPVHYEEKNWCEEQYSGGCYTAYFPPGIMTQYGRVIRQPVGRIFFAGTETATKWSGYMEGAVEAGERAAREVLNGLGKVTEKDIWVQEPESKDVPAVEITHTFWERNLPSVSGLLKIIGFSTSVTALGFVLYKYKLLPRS
Protocol: (§1) MAO-A, MAO-B, AChE and BChE activities were measured after exposure to inhibitors at a concentration of 10 µM. […] IC50 values were determined by measuring the residual enzyme activities. […] Ki values and inhibitor types were determined by kinetic testing, as previously described. […] Lineweaver–Burk plots and their secondary plots were used to determine Ki values and inhibitor types.

[5] = test system: normal VERO cells; assay: MTT cytotoxicity assay; details: for IC50: Chlorocebus sabaeus, Vero, read-out: IC50 in normal VERO cells
[6] = target: T1, MAO-B; assay: MAO-B inhibition assay (benzylamine substrate); format: biochemical; details: for remaining activity at 1 µM: read-out: Residual activities (%) MAO-B (1.0 µM); for SI = IC50 of MAO-A/IC50 of MAO-B: selectivity for MAO-B over MAO-A
[7] = target: BChE (Equus caballus, UniProt P81908); assay: biochemical; details: for remaining activity at 10 µM: read-out: Residual activities (%) BChE (10 µM)
BChE, sequence (P81908 whole entry): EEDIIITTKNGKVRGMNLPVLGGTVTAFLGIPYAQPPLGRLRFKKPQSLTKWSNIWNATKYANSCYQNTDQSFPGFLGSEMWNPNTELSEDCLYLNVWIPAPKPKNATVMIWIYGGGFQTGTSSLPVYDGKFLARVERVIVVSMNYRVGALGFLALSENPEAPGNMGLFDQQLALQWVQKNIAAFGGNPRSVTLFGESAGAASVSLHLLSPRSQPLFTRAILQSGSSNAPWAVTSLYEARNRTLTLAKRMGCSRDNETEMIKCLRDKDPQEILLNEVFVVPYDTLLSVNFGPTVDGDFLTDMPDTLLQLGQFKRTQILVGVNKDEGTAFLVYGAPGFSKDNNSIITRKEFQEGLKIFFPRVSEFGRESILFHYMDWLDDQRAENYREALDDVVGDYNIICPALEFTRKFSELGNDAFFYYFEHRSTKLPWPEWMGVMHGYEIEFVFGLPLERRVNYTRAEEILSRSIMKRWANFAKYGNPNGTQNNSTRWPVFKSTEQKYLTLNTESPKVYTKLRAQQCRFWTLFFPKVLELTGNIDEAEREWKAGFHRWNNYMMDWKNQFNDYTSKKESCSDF
Protocol: Colour development was performed using 0.5 mM 5,5′-dithiobis (2-nitrobenzoic acid) (DTNB), which reacts with thiocholine (a product of ATCI by AChE or of BTCI by BChE) to produce 5-thio 2-nitrobenzoic acid.
as §1

[8] = target: T3, AChE (Electrophorus electricus, UniProt O42275); assay: AChE inhibition assay (modified Ellman method, ATCI); format: biochemical; details: 15 min pre-incubation, mean ± SE
T3 sequence (O42275 24-633): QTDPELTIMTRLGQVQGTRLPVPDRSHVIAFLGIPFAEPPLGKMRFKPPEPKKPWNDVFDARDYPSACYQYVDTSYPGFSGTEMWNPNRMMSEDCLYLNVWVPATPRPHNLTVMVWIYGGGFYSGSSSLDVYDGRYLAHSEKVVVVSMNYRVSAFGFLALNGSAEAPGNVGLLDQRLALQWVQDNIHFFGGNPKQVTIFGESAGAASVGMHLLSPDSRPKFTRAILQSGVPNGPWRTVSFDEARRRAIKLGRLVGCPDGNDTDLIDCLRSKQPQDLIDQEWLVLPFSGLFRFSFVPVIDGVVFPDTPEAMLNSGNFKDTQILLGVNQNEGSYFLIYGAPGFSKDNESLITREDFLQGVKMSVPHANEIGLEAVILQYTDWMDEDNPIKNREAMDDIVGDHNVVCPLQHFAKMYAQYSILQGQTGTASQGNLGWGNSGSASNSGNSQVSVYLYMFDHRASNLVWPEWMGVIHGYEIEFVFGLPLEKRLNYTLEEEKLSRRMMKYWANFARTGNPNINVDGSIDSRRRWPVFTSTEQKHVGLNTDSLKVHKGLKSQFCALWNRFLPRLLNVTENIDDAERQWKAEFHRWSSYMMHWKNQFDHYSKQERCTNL

[9] = target: T1, MAO-B; assay: Kinetics of MAO-B inhibition (Lineweaver-Burk and secondary plots); format: biochemical
Protocol: as §1

[10] = test system: Hela cells; assay: Total ROS assay in H2O2-treated cells; format: cell-based, human; details: for ROS levels in H2O2-treated Hela cells: 40 µg/mL compound, 100 μg/mL H2O2, fluorescent image analysis
Excerpt: ROS are considered to be the radicals primarily responsible for the neuronal death observed in various neurodegenerative disorders.
Figure 7.

[11] = target: T3, AChE; assay: Reversibility of AChE inhibition by dialysis; format: biochemical; details: for Reversibility of AChE inhibition: dialysis; for AChE residual activity, dialysed (AD) / AChE residual activity, undialyzed (AU): inhibitor ~2 × IC50; for AChE residual activity, dialysed (AD): after 6 h dialysis; for AChE residual activity, undialyzed (AU): before dialysis
[12] = target: T3, AChE; assay: Kinetics of AChE inhibition (Lineweaver-Burk and secondary plots); format: biochemical
Protocol: as §1

Row | SMILES | Papp ([2]; PAMPA) | Prediction (BBB permeation class) ([2]; PAMPA-BBB, class from Pe) | remaining activity at 1 µM [6] | remaining activity at 10 µM [7] | remaining activity at 10 µM ([4]; inhibitor 10 µM, mean ± SE) | IC50 ([4]; mean ± SE) | IC50 [6] | SI = IC50 of MAO-A/IC50 of MAO-B [6] | further results
1 | NCCc1ccc(O)c(O)c1 [Dopamine, reference compound] |  |  |  |  |  |  |  |  | Bibliography Pe (×10^−6 cm s^−1) [1]: 0.2 ×10^−6 cm s^−1; Prediction (BBB permeation class) ([2]; PAMPA): CNS- (key: CNS+ (high): Pe (10^−6 cm s^−1) > 4.00; CNS- (low): Pe (10^−6 cm s^−1) <2.00; CNS± (uncertain): Pe (10^−6 cm s^−1) from 4.00 to 2.00)
2 | NCCNC(=O)c1ccc(Cl)cn1 [Lazabemide, reference compound] |  |  |  |  |  |  |  |  | MAO-B residual activity, dialysed (AD) ([3]; inhibitor ~2 × IC50): 90.0%; MAO-B residual activity, undialyzed (AU) ([3]; inhibitor ~2 × IC50, before dialysis): 38.8%
3 | CCn1cc(C(=O)O)c(=O)c2cc(F)c(N3CCNC(C)C3)c(F)c21 (stereo not shown) [Lomefloxacin, reference compound] | 1.26 ± 0.01 ×10⁻⁶ cm/s | CNS- (CNS- (low): Pe (10^−6 cm s^−1) <2.00) |  |  |  |  |  |  | 
4 | O=C(/C=C/c1ccccc1)c1ccc(N2CCOCC2)cc1 [MO1] | 16.34 ± 0.16 ×10⁻⁶ cm/s | CNS+ (CNS+ (high): Pe (10^−6 cm s^−1) > 4.00) | 38.1 ± 9.5% | 62.9 ± 2.97% |  |  |  |  | remaining activity at 10 µM [4]: 94.2 ± 0.62%; IC50 [5]: 195 µg/mL (≈ 665 µM); Toxicity to normal VERO cells ([5]; MTT assay): non-toxic; Reversibility of MAO-B inhibition ([3]; dialysis): reversible inhibitor; MAO-B residual activity, dialysed (AD) ([3]; inhibitor ~2 × IC50): 77.1%; IC50 ([6]; read-out: IC50 (µM) MAO-B, mean ± SE): 0.03 ± 0.062 µM; IC50 [8]: 16.1 ± 2.24 µM; Type of MAO-B inhibition [9]: reversible mixed-type inhibitor; BBB permeation ([2]; PAMPA-BBB): crossed the blood–brain barrier; ROS levels in H2O2-treated Hela cells [10]: significantly lower ROS levels than MO9; Colony formation induced by H2O2 ([10]; Hela cells): markedly reduced
5 | O=C(/C=C/c1ccc(O)cc1)c1ccc(N2CCOCC2)cc1 [MO2] |  |  | 54.5 ± 5.28% | 63.5 ± 3.3% | 93.8 ± 1.34% | > 40 µM | 0.7 ± 0.23 µM | > 57.1 | 
6 | COc1ccc(/C=C/C(=O)c2ccc(N3CCOCC3)cc2)cc1 [MO3] |  |  | 79.9 ± 5.28% | 56.8 ± 2.97% | 91 ± 3.17% | > 40 µM | 1.01 ± 0.08 µM | >39.6 | 
7 | Cc1ccc(/C=C/C(=O)c2ccc(N3CCOCC3)cc2)cc1 [MO4] |  |  | 49 ± 1.45% | 80.3 ± 6.43% | 70.2 ± 1.24% | 25.8 ± 1.58 µM | 0.33 ± 0.03 µM | 78.2 | 
8 | CN(C)c1ccc(/C=C/C(=O)c2ccc(N3CCOCC3)cc2)cc1 [MO5] | 14.4 ± 0.81 ×10⁻⁶ cm/s | CNS+ (CNS+ (high): Pe (10^−6 cm s^−1) > 4.00) |  |  |  |  |  |  | Reversibility of AChE inhibition [11]: reversible inhibitors; AChE residual activity, dialysed (AD) [11]: 79.2%; AChE residual activity, undialyzed (AU) [11]: 35.8%; Residual activities (%) MAO-A (10 µM) ([4]; inhibitor 10 µM, mean ± SE): 88.1 ± 3.43%; IC50 in normal VERO cells ([5]; MTT assay): 185.44 µg/mL (≈ 551 µM); Toxicity to normal VERO cells ([5]; MTT assay): non-toxic; Residual activities (%) BChE (10 µM) ([7]; inhibitor 10 µM, mean ± SE): 60.86 ± 1.07%; IC50 [8]: 6.1 ± 0.0048 µM; Residual activities (%) AChE (10 µM) ([8]; inhibitor 10 µM): 34.5 ± 9.51%; Type of AChE inhibition [12]: reversibly competitively inhibited; BBB permeation ([2]; PAMPA-BBB): crossed the blood–brain barrier; ROS levels in H2O2-treated Hela cells [10]: significantly lower ROS levels than MO9
9 | CCc1ccc(/C=C/C(=O)c2ccc(N3CCOCC3)cc2)cc1 [MO6] |  |  | 64.1 ± 1.37% | 70.96 ± 0.36% | 12.3 ± 1.58% | 8.7 ± 1.32 µM | 0.64 ± 0.04 µM | 13.6 | 
10 | O=C(/C=C/c1ccc([N+](=O)[O-])cc1)c1ccc(N2CCOCC2)cc1 [MO7] |  |  | 26.1 ± 5.44% | 70.2 ± 4.76% |  | 7.1 ± 0.41 µM | 0.25 ± 0.05 µM | 28.4 | 
11 | O=C(/C=C/c1ccc(Cl)cc1)c1ccc(N2CCOCC2)cc1 [MO8] |  |  | 34.6 ± 5.44% | 74.61 ± 0.73% | 83.7 ± 4.02% | > 40 µM | 0.32 ± 0.16 µM | >125.0 | 
12 | O=C(/C=C/c1ccc(Br)cc1)c1ccc(N2CCOCC2)cc1 [MO9] | 14.61 ± 0.08 ×10⁻⁶ cm/s | CNS+ (CNS+ (high): Pe (10^−6 cm s^−1) > 4.00) | 51.3 ± 2.42% | 70.2 ± 5.5% | 79.8 ± 1.54% | > 40 µM | 0.36 ± 0.16 µM | >111.1 | Reversibility of AChE inhibition [11]: reversible inhibitors; AChE residual activity, dialysed (AD) [11]: 80.7%; AChE residual activity, undialyzed (AU) [11]: 33.8%; IC50 [5]: 188 µg/mL (≈ 506 µM); Toxicity to normal VERO cells ([5]; MTT assay): non-toxic; Type of AChE inhibition [12]: reversibly noncompetitively inhibited; also recorded: non-competitively; BBB permeation ([2]; PAMPA-BBB): crossed the blood–brain barrier
13 | CN1C(C(=O)Nc2ccccn2)=C(O)c2ccccc2S1(=O)=O [Piroxicam, reference compound] | 2.35 ± 0.3 ×10⁻⁶ cm/s | CNS+/- |  |  |  |  |  |  | Bibliography Pe (×10^−6 cm s^−1) [1]: 2.5 ×10^−6 cm s^−1

Reference: PMC7808749, “Morpholine-based chalcones as dual-acting monoamine oxidase-B and acetylcholinesterase inhibitors: synthesis and biochemical investigations” (Journal of Enzyme Inhibition and Medicinal Chemistry, 2021)
